One block for each compound: values may come before it.
Key:
HepG2 cells [1] = test: Glucose production assay in HepG2 cells; format: cell-based, human
Method: (§1) Equal numbers of Human HepG2 or rat H4IIE cells (1-1.5×10^5 cells/well) were seeded on 96 well plates in 10% FBS-containing media for 24 hr. Cells were then washed twice with PBS, and treated with various concentrations of compounds, metformin or insulin in 100 μl of glucose production media (glucose-free, phenol red-free DMEM media supplemented with 20 mM sodium lactate, 2 mM sodium pyruvate and 5 mM HEPES) at 37° C. for 24 hr (H4IIE cells only) or 48 hr (HepG2 cell only). Cells were also incubated with 0.24% DMSO (the maximal volume of DMSO solvent used in the experiments).
(§2) After the above treatments, 50 μl of culture media were collected, and subjected to glucose analysis using Molecular Probes Amplex Red glucose assay kit (Cat #A22189) according to the manufacturer's protocol. Cell numbers or viability in the culture plate after the above compound treatments were determined using Promega's CellTiter96® AQueous One Solution Cell Proliferation Assay kits, according to the manufacturer's protocol and instructions. In brief, after removing 50 μl of culture media for glucose assay, cells were incubated with AQueous One solution (25 μl stock solution and 50 μl prewarmed PBS/per well) at 37° C. for 1 hour, and the absorbance of OD490 nm in each sample was determined by the Bio-Tek microplate reader. Cell viability in culture wells were determined by the subtraction of OD490 nm in cultured cells with the OD490 nm in plain culture media (without seeding of cells). Glucose production in the culture cells were obtained by normalizing the glucose concentration in culture media by cell viability in each well. At least 3 samples per each treatment were examined for the above analysis. Data are presented as Mean±SEM of those samples. Experiments were repeated at least twice.
(§3) The half maximal inhibitory concentration (IC50 values) of Compound #43 or metformin for the inhibition of glucose production were determined using the ED50 Plus v1.0 online software.

H4IIE cells [2] = test: Cell viability (CellTiter96 AQueous One) in H4IIE cells; format: cell-based, rat; settings: tested doses
Method: as §2

HepG2 cells [3] = test: Cell viability (CellTiter96 AQueous One) in HepG2 cells; format: cell-based, human; settings: higher doses 0.5-4 mM
Method: as §2

H4IIE cells [4] = test: Glucose production assay in H4IIE cells; format: cell-based, rat
Method: as §1, §2, §3

Lepr^db/db mice [5] = test: Glucose tolerance test in Lepr^db/db mice; format: in vivo, mouse
Method: (§4) Male Lepr^db/db mice at 38 days of age were intraperitoneally (ip) injected daily with physiological saline ([…]) containing 0.2% DMSO, Compound #C, Compound #50, Compound #68, and/or Compound #43 (25 μg selenium or sulfur equivalents of each compound per kilogram body weight, diluted in sterile physiological saline) for periods ranging from 43-90 days. Body weights of the above treated mice were recorded daily using a balance and any visible abnormal animal gross morphology and walking behavior were monitored daily. After the treatments, animals were fasted overnight and then subjected to blood glucose or HbA1c assays, glucose tolerance tests or tissue collections.
(§5) For comparative studies of any potential anti-diabetic effects of Compounds #43, #69 and #70, male Lepr^db/db mice at 41 days of age were intraperitoneally (ip) injected daily with physiological saline ([…]) containing 0.2% DMSO, Compound #43, Compound #69, or Compound #70 (25 μg selenium of each compound per kilogram body weight, diluted in sterile physiological saline). After the treatments for 43 days, animals were fasted overnight and then subjected to blood glucose and glucose tolerance tests. After daily treatments of these compounds for 90 days, sera from these animals were collected and then subjected to blood HbA1c assays.
Glucose tolerance tests were performed as described previously (Li et al, Int J Biol Sci 2008; 4:29-36). Briefly, overnight-fasted Lepr^db/db mice after saline or compound treatments were injected intraperitoneally with 2 grams/kg body weight of 20% D-glucose. Blood glucose levels at time 0 (immediately before the injection of glucose), 0.25, 0.5, 1 and 2 hours after injection of glucose were determined using a glucometer with a maximum glucose measurement capacity of 600 mg/dL. Because of this, blood glucose levels over 600 mg/dL were counted as 600 mg/dL in the data analysis.

Lepr^db/db mice [6] = test: Chronic treatment: fasting blood glucose and HbA1c in Lepr^db/db mice; format: in vivo, mouse; settings: for effect on HbA1c levels: 25 μg selenium/kg ip daily for 90 days from 41 days of age (FIG. 5)
Method: as §4, §5
After treatment with physiological saline or compounds or after the injection of a bolus of glucose, a small drop of blood from each mouse was collected by snipping the mouse tail tip. Blood glucose levels were determined using a Glucometer with a maximum capability for glucose measurement of 600 mg/dL.
After saline or compound treatments, a small drop of blood from the mouse tail was collected in an EDTA-coated eppendorf tube (to prevent blood coagulation) (Fisher Scientific), and then subjected to a HbA1c assay using the Crystal Chem's or Kamiya's mouse glycated hemoglobin A1c ELISA kit, according to the manufacturer's protocol. Also after the final treatments, mouse serum was collected and subjected to HbA1c assay using the Kamiya Biomeidcal Company's mouse HbA1c kit, according to the manufacturer's protocol.

[7] = Body weight, gross morphology and walking behavior of treated Lepr^db/db mice; format: in vivo
Method: Body weights of the above treated mice were recorded daily using a balance and any visible abnormal animal gross morphology and walking behavior were monitored daily. After the treatments, animals were fasted overnight and then subjected to blood glucose or HbA1c assays, glucose tolerance tests or tissue collections.
After the treatments for 43 days, animals were fasted overnight and then subjected to blood glucose and glucose tolerance tests. After daily treatments of these compounds for 90 days, sera from these animals were collected and then subjected to blood HbA1c assays.

[8] = molecular target: T1, native insulin receptor (Insr) (Rattus norvegicus, UniProt P15127); test: In vitro cell-free phosphorylation of native insulin receptor; format: biochemical; settings: 3.8 μM, cell-free (FIG. 27)
T1 construct: native insulin receptor proteins, containing both alpha and beta subunits; purchased Sigma I9266; host or cells: purified from rat liver tissue
Method: In vitro phosphorylation of Insr was performed according to Sigma's protocol with the following modifications. In brief, 10 μl of native insulin receptor solution containing 0.8 μl of original native INSR stock solution (Sigma, Catalog #I9266; diluted in enzyme dilution buffer containing 50 mM HEPES, pH 7.6, 150 mM NaCl and 0.1% Triton X-100) were incubated with equal volume of solutions containing insulin (Sigma), DMSO (Compound #43 solvent), Compound #43 or Compound #68 (diluted in 50 mM HEPES, pH 7.6 and 100 μg/ml bovine serum albumin) on ice for 30 min. Then 20 μl of 2× kinase buffer containing 0.2 mM ATP, 50 mM HEPES, pH 7.6, 50 mM MgCl2 and 4 mM MnCl2 were added to the above reactions, mixed and incubated on ice for 45 minutes.
Five microliters of the above reactions were immediately subjected to Western blot analysis using specific antibodies against phosphorylated tyrosine residues at 1146, 1150 and 1151 of Insrβ proteins (Cell Signaling Inc.). Protein band density was determined using the NIH Image J software.

[9] = tested doses, serum-free glucose production media, 48 hr (FIG. 1)
[10] = 25 μg selenium/kg ip daily for 43 days from 41 days of age (FIG. 5)
[11] = 25 μg selenium/kg ip daily, 90 days, from 41 days of age

T1 sequence (P15127 764-1383 limits assumed): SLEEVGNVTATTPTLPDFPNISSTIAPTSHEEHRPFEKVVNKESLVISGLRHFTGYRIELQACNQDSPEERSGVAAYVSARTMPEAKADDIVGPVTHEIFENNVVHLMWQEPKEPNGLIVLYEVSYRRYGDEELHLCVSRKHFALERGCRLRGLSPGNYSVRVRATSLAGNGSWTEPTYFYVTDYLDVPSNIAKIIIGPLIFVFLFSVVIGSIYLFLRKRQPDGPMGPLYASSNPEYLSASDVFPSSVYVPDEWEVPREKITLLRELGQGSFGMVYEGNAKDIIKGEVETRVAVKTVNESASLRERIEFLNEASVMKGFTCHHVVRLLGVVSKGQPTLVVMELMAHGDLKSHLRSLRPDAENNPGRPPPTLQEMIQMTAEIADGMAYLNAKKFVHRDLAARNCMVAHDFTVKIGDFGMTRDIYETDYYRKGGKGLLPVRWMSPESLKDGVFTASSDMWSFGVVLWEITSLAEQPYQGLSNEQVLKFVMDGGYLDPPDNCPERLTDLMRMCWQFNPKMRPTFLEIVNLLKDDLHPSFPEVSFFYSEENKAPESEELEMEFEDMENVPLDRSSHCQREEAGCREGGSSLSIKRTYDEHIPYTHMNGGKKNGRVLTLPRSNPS
T1 sequence (P15127 27-759 partner limits assumed): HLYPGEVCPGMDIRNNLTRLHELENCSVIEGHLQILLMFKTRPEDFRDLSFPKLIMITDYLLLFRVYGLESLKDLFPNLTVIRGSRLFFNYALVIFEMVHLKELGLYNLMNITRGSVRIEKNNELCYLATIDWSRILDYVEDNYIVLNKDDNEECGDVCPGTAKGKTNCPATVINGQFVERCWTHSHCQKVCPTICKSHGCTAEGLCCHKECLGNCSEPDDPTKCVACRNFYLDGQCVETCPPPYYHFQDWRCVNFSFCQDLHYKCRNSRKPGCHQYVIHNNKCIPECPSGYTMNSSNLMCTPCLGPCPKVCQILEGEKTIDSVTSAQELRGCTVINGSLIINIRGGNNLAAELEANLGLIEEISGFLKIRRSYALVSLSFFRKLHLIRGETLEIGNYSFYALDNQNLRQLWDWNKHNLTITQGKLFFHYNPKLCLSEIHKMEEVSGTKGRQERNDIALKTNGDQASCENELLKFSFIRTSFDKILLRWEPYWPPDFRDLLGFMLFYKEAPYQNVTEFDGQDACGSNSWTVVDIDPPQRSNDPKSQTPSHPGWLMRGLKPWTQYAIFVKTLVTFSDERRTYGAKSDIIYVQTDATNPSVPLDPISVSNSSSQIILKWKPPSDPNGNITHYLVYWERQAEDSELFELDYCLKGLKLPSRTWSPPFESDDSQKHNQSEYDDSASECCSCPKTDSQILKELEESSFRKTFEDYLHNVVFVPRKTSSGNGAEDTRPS

Compound: Adenosine, F—Se-methyl-F-seleno-, 2′-morpholinocarbamate and Adenosine, 5′-Se-methyl-F-seleno-, 3′-morpholinocarbamate [Compound #53]
effect on glucose production in HepG2 cells (HepG2 cells [1]; [9]): inhibited glucose production

Compound: Nc1ncnc2[nH]cnc12 [Compound #62, Adenine, reference compound]
effect on glucose production in HepG2 cells (HepG2 cells [1]; [9]): did not inhibit glucose production

IC50 (H4IIE cells [4]; Rattus norvegicus, H4IIE, serum-free, 24 hr, read-out: IC50 (inhibition of glucose production)): 275 µM
Compound: CN(C)C(=N)N=C(N)N [metformin, reference compound]
effect on glucose production in HepG2 cells (HepG2 cells [1]; 500 μM): did not inhibit glucose production
toxic effect on cell viability (H4IIE cells [2]): No toxic effect
cell toxicity (HepG2 cells [3]): showed cell toxicity
inhibitory activity on glucose production in H4IIE cells (H4IIE cells [4]; 36.25 μM): little or no inhibitory activity
effect on glucose production in H4IIE cells (H4IIE cells [4]; serum-free, 24 hr (FIG. 2)): dose-dependent decrease in glucose production

Compound: Nc1ncnc2c1ncn2[C@@H]1O[C@H](CO)[C@@H](O)[C@H]1O [Compound #57, Adenosine, reference compound]
effect on glucose production in HepG2 cells (HepG2 cells [1]; [9]): did not inhibit glucose production

Compound: Adenosine, 5′-Se-methyl-5′-selino-, 2′,3′-dipropionate [Compound #69]
effect on glucose production in HepG2 cells (HepG2 cells [1]; [9]): inhibited glucose production
blood glucose level at 2 hr after glucose injection (Lepr^db/db mice [5]; FIG. 8C, 43 days treatment): slight but non-significant decrease in glucose levels
effect on fasting blood glucose levels (Lepr^db/db mice [6]; [10]): slight increase in fasting blood glucose levels
effect on HbA1c levels (Lepr^db/db mice [6]): did not result in a significant decrease of HbA1c levels
overt toxic effects (morphology, walking behavior, body weight) [7, 11]: no overt toxic effects

Compound: Nc1ncnc2c1ncn2C1CCCO1 (stereo not drawn) [Compound #61, 9-(tetrahydrofuran-2-yl)-9h-purin-6-amine (SQ 22,536), reference compound]
effect on glucose production in HepG2 cells (HepG2 cells [1]; [9]): did not inhibit glucose production

Compound: CSC[C@H]1O[C@@H](n2cnc3c(N)ncnc32)[C@H](OC(C)=O)[C@@H]1OC(C)=O [Compound #68, Adenosine, 5′-S-methyl-5′-thio-, 2′,3′-diacetate]
effect on glucose production in HepG2 cells (HepG2 cells [1]; [9]): minimal effects in lowering glucose production
glucose tolerance (overall) (Lepr^db/db mice [5]; 25 μg selenium or sulfur/kg ip daily 2 months (FIG. 8B)): little or no effects to improve glucose tolerance
blood glucose level at 2 hr after glucose injection (Lepr^db/db mice [5]; FIG. 8B, 2 months treatment): no obvious decrease of blood glucose levels
effect on fasting blood glucose levels (Lepr^db/db mice [6]; 25 μg selenium or sulfur/kg ip daily, 3 months (FIG. 4)): did not significantly lower blood glucose levels
effect on blood HbA1c levels (Lepr^db/db mice [6]; 25 μg sulfur/kg ip daily, 3 months (FIG. 4)): did not affect blood HbA1c levels
overt toxic effects (morphology, walking behavior, body weight) ([7]; 25 μg selenium or sulfur/kg ip daily, 3 months): no overt toxic effects
activation of Insr [8]: less effective at the tested dose than Compound #43

Compound: C[C@H]1O[C@@H](n2cnc3c(N)ncnc32)C[C@@H]1O [Compound #59, 2′,5′-Dideoxyadenosine, reference compound]
effect on glucose production in HepG2 cells (HepG2 cells [1]; [9]): did not inhibit glucose production

Compound: CCCC(=O)OC1C(OC(=O)CCC)[C@@H](C[Se]C)O[C@H]1n1cnc2c(N)ncnc21 (stereo partly drawn) [Compound #70, Adenosine, 5′-Se-methyl-5′-selino-, 2′,3′-dibutanoate]
effect on glucose production in HepG2 cells (HepG2 cells [1]; [9]): inhibited glucose production
blood glucose level at 2 hr after glucose injection (Lepr^db/db mice [5]; FIG. 8C, 43 days treatment): slight but non-significant decrease in blood glucose levels
effect on fasting blood glucose levels (Lepr^db/db mice [6]; [10]): decrease of fasting blood glucose levels in Lepr^db/db mice but less significant than Compound #43
decrease of HbA1c levels (initial assessments) (Lepr^db/db mice [6]; 25 μg selenium/kg ip daily for 90 days (FIG. 5), later revised): about 50%
effect on HbA1c levels (Lepr^db/db mice [6]): neither Compound #69 nor Compound #70 had any significant effect
overt toxic effects (morphology, walking behavior, body weight) [7, 11]: no overt toxic effects

Compound: C[S+](CC[C@H](N)C(=O)O)C[C@H]1O[C@@H](n2cnc3c(N)ncnc32)C(O)C1O.[I-] (stereo partly drawn) [Compound #64, S-(5′-Adenosyl)-L-methionine iodide (SAM), reference compound]
effect on glucose production in HepG2 cells (HepG2 cells [1]; [9]): minimal effects in lowering glucose production

Source: patent publication US11613552B2, “Pharmaceutical agents, compositions, and methods relating thereto” (Alltech, Inc., priority 2017, dated 2023)
